Measured values: PMC11401861, “Assessment of the in vitro anti-diabetic activity with molecular dynamic simulations of limonoids isolated from Adalia lemon peels” (Scientific Reports, 2024)
In brackets after ≈: the same amount, converted by molar mass.

Assays:
α-glucosidase [1] = assay: SDS-PAGE electrophoretic α-glucosidase pattern; format: biochemical; conditions: 100 µg/mL
Procedure: (§1) The relative mobility (Rf), band quantity (Qty) and band percent (B%) of the electrophoretically detected isoenzyme types on the PAGE plate were determined using the Quantity One software program (version 4.6.2). The equation proposed by Nei and Li[39] was used to calculate the percentages of similarity index (SI%) and physiological difference (Diff%).

α-glucosidase [2] = assay: α-Glucosidase enzyme inhibition assay; format: biochemical; conditions: for IC50 against α-glucosidase: Fig. 2b
Procedure: (§2) All in vitro biological activities of the limonoids-rich extract and the isolated compounds were assayed in triplicate at three different concentrations (50, 100, and 200 µg/mL).
(§3) The IC50 of each tested sample was determined by plotting a curve using a series of sample concentrations against the percent of enzyme inhibition.

α-amylase [3] = assay: α-Amylase enzyme inhibition assay; format: biochemical; conditions: for IC50 against α-amylase: Fig. 2b
Procedure: as §2, §3

α-amylase [4] = assay: Native electrophoretic α-amylase isoenzyme pattern (PAGE); format: biochemical; conditions: standard enzyme treated with 100 µg/mL
Procedure: as §1

[5] = Total antioxidant capacity (TAC), method of Prieto et al.
Procedure: as §2
The method proposed by Prieto et al.[30] was used to determine the total antioxidant capacity (TAC) expressed as mg […] equivalent per gram weight, using ascorbic acid at the same concentrations as a standard.

[6] = Nitric oxide (NO) radical scavenging activity (Griess Illosvory reagent); conditions: for IC50 against NO radical: Fig. 2a
Procedure: as §2
The nitric oxide (NO) radical scavenging activity was estimated by the reaction with Griess Illosvory reagent based on the method proposed by Chakraborthy[34]. The NO scavenging capacities of the samples were compared with that of ascorbic acid. The percent inhibition of the NO radical was calculated. The IC50 of each tested sample was determined by plotting a curve using a series of sample concentrations against the percent of NO inhibition.

[7] = DPPH radical scavenging activity; conditions: for IC50 against DPPH radical: Fig. 2a
Procedure: as §2
The 1,1-Diphenyl-2-picryl-hydrazyl (DPPH) radical scavenging activity was evaluated using the method described by Rahman et al.[32]. Ascorbic acid was used as a positive control at the same concentrations. The inhibition percentage of the DPPH free radical was calculated. The median inhibitory concentration (IC50) of each tested sample was determined by plotting a curve using a series of sample concentrations against the percentage of DPPH inhibition.

[8] = ABTS radical scavenging assay; conditions: for IC50 against ABTS radical: Fig. 2a
Procedure: as §2
The ABTS scavenging capacities of the samples were compared with that of ascorbic acid. The percent inhibition of the ABTS radical was calculated. The IC50 of each tested sample was determined by plotting a curve using a series of sample concentrations against the percent of ABTS inhibition.

[9] = Iron reducing power (IRP), method of Oyaizu

Row | SMILES | α-Glucosidase Inhibition (%) (α-glucosidase [2]; sample concentration 50 µg/mL) | α-Glucosidase Inhibition (%) (α-glucosidase [2]; sample concentration 100 µg/mL) | α-Glucosidase Inhibition (%) (α-glucosidase [2]; sample concentration 200 µg/mL) | α-Amylase Inhibition (%) (α-amylase [3]; sample concentration 50 µg/mL) | α-Amylase Inhibition (%) (α-amylase [3]; sample concentration 100 µg/mL) | α-Amylase Inhibition (%) (α-amylase [3]; sample concentration 200 µg/mL) | Change in electrophoretic α-amylase isoenzyme pattern (α-amylase [4]) | TAC ([5]; sample concentration 50 µg/mL) [mg gallic acid/g] | TAC ([5]; sample concentration 100 µg/mL) [mg gallic acid/g] | TAC ([5]; sample concentration 200 µg/mL) [mg gallic acid/g] | NO Inhibition (%) ([6]; sample concentration 50 µg/mL) | NO Inhibition (%) ([6]; sample concentration 100 µg/mL) | NO Inhibition (%) ([6]; sample concentration 200 µg/mL) | DPPH Inhibition (%) ([7]; sample concentration 50 µg/mL) | DPPH Inhibition (%) ([7]; sample concentration 100 µg/mL) | DPPH Inhibition (%) ([7]; sample concentration 200 µg/mL) | ABTS Inhibition (%) ([8]; sample concentration 50 µg/mL) | ABTS Inhibition (%) ([8]; sample concentration 100 µg/mL) | ABTS Inhibition (%) ([8]; sample concentration 200 µg/mL) | IRP ([9]; sample concentration 50 µg/mL) [µg/mL] | also measured
1 | C[C@H]1O[C@H](O[C@H]2[C@H](O)[C@@H](O)[C@@H](O[C@H]3[C@H](O)[C@@H](O)C(O)O[C@@H]3CO)O[C@@H]2CO)[C@H](O)[C@@H](O)[C@@H]1N[C@H]1C=C(CO)[C@@H](O)[C@H](O)[C@H]1O (some centres unmarked) [Acarbose, acarbose, reference compound] | 17.69 ± 0.08 | 29.73 ± 0.13 | 52.92 ± 0.23 | 21.84 ± 0.08 | 37.12 ± 0.13 | 66.07 ± 0.23 | complete denaturation |  |  |  |  |  |  |  |  |  |  |  |  |  | Change in electrophoretic α-glucosidase pattern (α-glucosidase [1]): complete denaturation
2 | CC1(C)OC(=O)C=C[C@]2(C)[C@H]3CC[C@@](C)([C@@H](O[C@@H]4O[C@H](CO)[C@@H](O)[C@H](O)[C@H]4O)c4ccoc4)[C@@]4(O[C@@H]4C(=O)O)[C@]3(C)C(=O)C[C@@H]12 [Cpd4, obacunone 17-O-β-D-glucopyranoside] | 14.78 ± 0.07 | 26.30 ± 0.13 | 46.81 ± 0.23 | 18.93 ± 0.07 | 33.69 ± 0.13 | 59.96 ± 0.23 | severe abnormalities | 27.18 ± 0.07 | 48.37 ± 0.13 | 86.10 ± 0.23 | 18.48 ± 0.06 | 32.90 ± 0.11 | 58.55 ± 0.20 | 23.63 ± 0.06 | 42.06 ± 0.11 | 74.87 ± 0.20 | 22.03 ± 0.07 | 39.20 ± 0.13 | 69.78 ± 0.23 | 22.03 ± 0.07 | Diff% (decrease in the quantity of the identified α-glucosidase band) (α-glucosidase [1]): 64.41%; Qty (band quantity) of the α-glucosidase band (α-glucosidase [1]): 6.64; IC50 against α-glucosidase (α-glucosidase [2]): 2.46 ± 0.02 µg/mL (≈ 3.88 µM); IC50 against NO radical [6]: 5.70 ± 0.03 µg/mL (≈ 8.98 µM); IC50 against α-amylase (α-amylase [3]): 3.61 ± 0.02 µg/mL (≈ 5.69 µM); IC50 against DPPH radical [7]: 5.12 ± 0.02 µg/mL (≈ 8.07 µM); Diff% (physiological difference) of electrophoretic α-amylase pattern from the standard enzyme (α-amylase [4]): 100.00%; SI% (similarity index) of electrophoretic α-amylase pattern to the standard enzyme (α-amylase [4]): 0.00%; IC50 against ABTS radical [8]: 4.53 ± 0.02 µg/mL (≈ 7.14 µM); IRP ([9]; sample concentration 100 µg/mL): 39.20 ± 0.13 µg/mL; IRP ([9]; sample concentration 200 µg/mL): 69.78 ± 0.23 µg/mL
3 | CC1(C)O[C@H]2CC(=O)OC[C@]23[C@H]2CC[C@@]4(C)[C@H](c5ccoc5)OC(=O)[C@H]5O[C@]54[C@]2(C)C(=O)C[C@@H]13 [Cpd1, limonin] | 1.37 ± 0.03 | 2.44 ± 0.04 | 4.34 ± 0.08 | 4.52 ± 0.03 | 8.05 ± 0.04 | 14.32 ± 0.08 | no qualitative or quantitative variations | 12.77 ± 0.03 | 22.73 ± 0.04 | 40.46 ± 0.08 | 5.95 ± 0.02 | 10.60 ± 0.04 | 18.87 ± 0.07 | 11.10 ± 0.02 | 19.77 ± 0.04 | 35.18 ± 0.07 | 7.62 ± 0.03 | 13.56 ± 0.04 | 24.14 ± 0.08 | 7.62 ± 0.03 | Diff% (decrease in the quantity of the identified α-glucosidase band) (α-glucosidase [1]): 3.83%; Qty (band quantity) of the α-glucosidase band (α-glucosidase [1]): 17.95; Diff% (physiological difference) of electrophoretic α-amylase pattern from the standard enzyme (α-amylase [4]): 0.00%; SI% (similarity index) of electrophoretic α-amylase pattern to the standard enzyme (α-amylase [4]): 100.00%; IRP ([9]; sample concentration 100 µg/mL): 13.56 ± 0.04 µg/mL; IRP ([9]; sample concentration 200 µg/mL): 24.14 ± 0.08 µg/mL
4 | CC(=O)O[C@H]1CC(=O)OC(C)(C)[C@@H]2CC(=O)[C@]3(C)[C@H](CC[C@@]4(C)[C@H](c5ccoc5)OC(=O)[C@H]5O[C@]543)[C@@]12C [Cpd3, nomilin] | 1.50 ± 0.03 | 2.67 ± 0.05 | 4.75 ± 0.08 | 4.65 ± 0.03 | 8.27 ± 0.05 | 14.73 ± 0.08 | no qualitative or quantitative variations | 12.90 ± 0.03 | 22.96 ± 0.05 | 40.87 ± 0.08 | 6.07 ± 0.02 | 10.80 ± 0.04 | 19.22 ± 0.07 | 11.22 ± 0.02 | 19.96 ± 0.04 | 35.53 ± 0.07 | 7.75 ± 0.03 | 13.79 ± 0.05 | 24.55 ± 0.08 | 7.75 ± 0.03 | Diff% (decrease in the quantity of the identified α-glucosidase band) (α-glucosidase [1]): 7.51%; Qty (band quantity) of the α-glucosidase band (α-glucosidase [1]): 17.26; Diff% (physiological difference) of electrophoretic α-amylase pattern from the standard enzyme (α-amylase [4]): 0.00%; SI% (similarity index) of electrophoretic α-amylase pattern to the standard enzyme (α-amylase [4]): 100.00%; IRP ([9]; sample concentration 100 µg/mL): 13.79 ± 0.05 µg/mL; IRP ([9]; sample concentration 200 µg/mL): 24.55 ± 0.08 µg/mL
5 | CC1(C)OC2CC(=O)OCC23C1CC(=O)C1(C)C3CC[C@@](C)([C@@H](O[C@@H]2O[C@H](CO)[C@@H](O)[C@H](O)[C@H]2O)c2ccoc2)C12OC2C(=O)O (stereo partly drawn) [Cpd5, limonin 17-O-β-D-glucopyranoside] | 15.05 ± 0.07 | 26.78 ± 0.13 | 47.67 ± 0.23 | 19.20 ± 0.07 | 34.17 ± 0.13 | 60.82 ± 0.23 | severe abnormalities | 27.45 ± 0.07 | 48.86 ± 0.13 | 86.96 ± 0.23 | 18.72 ± 0.06 | 33.32 ± 0.11 | 59.30 ± 0.20 | 23.87 ± 0.06 | 42.48 ± 0.11 | 75.62 ± 0.20 | 22.30 ± 0.07 | 39.69 ± 0.13 | 70.65 ± 0.23 | 22.30 ± 0.07 | Diff% (decrease in the quantity of the identified α-glucosidase band) (α-glucosidase [1]): 69.27%; Qty (band quantity) of the α-glucosidase band (α-glucosidase [1]): 5.73; IC50 against α-glucosidase (α-glucosidase [2]): 2.42 ± 0.02 µg/mL (≈ 3.72 µM); IC50 against NO radical [6]: 5.62 ± 0.03 µg/mL (≈ 8.64 µM); IC50 against α-amylase (α-amylase [3]): 3.56 ± 0.02 µg/mL (≈ 5.47 µM); IC50 against DPPH radical [7]: 5.07 ± 0.02 µg/mL (≈ 7.79 µM); Diff% (physiological difference) of electrophoretic α-amylase pattern from the standard enzyme (α-amylase [4]): 100.00%; SI% (similarity index) of electrophoretic α-amylase pattern to the standard enzyme (α-amylase [4]): 0.00%; IC50 against ABTS radical [8]: 4.48 ± 0.02 µg/mL (≈ 6.89 µM); IRP ([9]; sample concentration 100 µg/mL): 39.69 ± 0.13 µg/mL; IRP ([9]; sample concentration 200 µg/mL): 70.65 ± 0.23 µg/mL
6 | O=C1O[C@H]([C@@H](O)CO)C(O)=C1O [Ascorbic Acid, ascorbic acid, reference compound] |  |  |  |  |  |  |  | 30.09 ± 0.08 | 53.56 ± 0.14 | 95.34 ± 0.25 | 21.02 ± 0.07 | 36.27 ± 0.11 | 64.55 ± 0.20 | 26.17 ± 0.07 | 45.43 ± 0.11 | 80.87 ± 0.20 | 24.94 ± 0.08 | 42.64 ± 0.13 | 75.90 ± 0.23 | 23.95 ± 0.07 | IC50 against NO radical [6]: 5.17 ± 0.03 µg/mL (≈ 29.4 µM); IC50 against DPPH radical [7]: 4.74 ± 0.02 µg/mL (≈ 26.9 µM); IC50 against ABTS radical [8]: 4.17 ± 0.02 µg/mL (≈ 23.7 µM); IRP ([9]; sample concentration 100 µg/mL): 42.64 ± 0.13 µg/mL; IRP ([9]; sample concentration 200 µg/mL): 75.90 ± 0.23 µg/mL
